Data from US20040029908A1, “Tricyclo compounds, a process for their production and a pharmaceutical composition containing the same” (FUJISAWA PHARMACEUTICAL CO., LTD., priority 1984, published 2004).

Legend:
[1] = system: Interleukin-2 (IL-2) Production; assay: Inhibition of Interleukin-2 (IL-2) Production in MLR, CTLL-2 bioassay; format: cell-based, mouse; settings: for IL-2: MLR supernatant at 48 hours
Protocol: (§1) The mixed lymphocyte reaction (MILR) was performed in microtiter plates, with each well containing 5 ×10^5 C57BL/6 responder cells (H-2^b), 5 ×10^5 mitomycin C treated (25 μg/ml mitomycin C at 37° C. for 30 minutes and washed three times pith RPMI 1640 medium) BALB/C stimulator cells ([…]) in 0.2 ml RPMI 1640 medium supplemented with 10% fetal calf serum, 2mM sodium hydrogen carbonate, penicillin 20 (50 unites/ml) and streptomycin (50 μg/ml) . The cells were incubated at 37° C. in humidified atmosphere of 5% carbon dioxide and 95% of air for 48 hours and the supernatant was collected. The FR-900506 substance was dissolved in ethanol and further diluted in RPMI 1640 medium and added to the cultures to give final concentrations of 0.1 μg/ml or less.
The IL-2 activity was measured according to the method described by S. Gillis et. al. [Journal of Inununology, Vol. 120, page 2027, (1978)]. The IL-2 dependent CTLL-2 cell line was used to quantitate IL-2 activity. Cells (5 ×10^3/well) were cultured at 37° C. for 24 hours with various dilutions of IL-2 containing supernatant from MLR. The uptake of ^3H-thymidine was measured by pulsing cultures with 0.5 uCi of 1T-thymidine for 6 hours. The unit value was calculated by dilution analysis of test sample and was compared with a laboratory standard preparation in which 100 units are equivalent to the amount of IL-2 necessary to achieve 50% proliferation of CTLL-2 cells.

[2] = system: Local Graft-versus-Host Reaction in BDF1 mice; assay: Local Graft-versus-Host Reaction (GvHR) in Mice; format: in vivo; settings: Mus musculus, po; orally for five days; weight difference right and left popliteal lymph nodes, day 7; read-out: ED50 for prevention of the local graft-versus-host reaction
Protocol: The viable spleen cells ([…] cells) from C57BL/6 donors were injected subcutaneously into the right hind foot pad of BDF1 mice to induce local GvHR. The mice were killed 7 days later and both right (injected paw) and left (uninjected paw) popliteal lymph nodes (PLN) were weighed. The GVHR was expressed as the weight difference between right and left PLN. The FR-900506 substance was dissolved in olive oil and administered orally for five days starting on the same day as sensitization.

[3] = system: Skin Allograft Survival in Rats (Fischer donor, WKA recipient); assay: Skin Allograft Survival in Rats; format: in vivo, rat; settings: daily treatment, intramuscularly, 14 consecutive days
Protocol: Vental allografts from donor (Fischer) rats were grafted onto the lateral thoracic area of recipient (WKA) rats. The dressings were removed on day 5. The grafts were inspected daily until rejection which was defined as more than 90% necrosis of the graft epitherium.
The FR-900506 substance was dissolved in olive oil and administered intramuscularly for 14 consecutive days, beginning at the day of transplantation.

[4] = system: Contact-Delayed Hypersensitivity in ICR mice; assay: Contact-Delayed Hypersensitivity in mice (picryl chloride); format: in vivo, mouse
Protocol: Female ICR mice were used for this test. A tenth of a 7% (w/v) solution of picryl chloride in ethanol prepared at the time of the experiment was applied to the ventral surface of previously shaved animals. Such a sensitization was performed twice at intervals of 7 days. Seven days later, the thickness of the ears were measured with an ordinary engineer's micrometer and a 1% (w/v) solution of picryl chloride in olive oil was painted to both surfaces of each ear. The inflammation was evaluated 24 hours later by measuring the both of ears. The results were expressed as the average increase in thickness of the ears measured in units of 10 ^−3cm. The FR-900506 substance was injected for 14 days orally, starting from the first sensitization.

ddY mice = assay: Acute toxicities in ddY mice by intraperitoneal injection; format: in vivo; settings: ddY mice, intraperitoneal injection
[5] = system: interleukin 3 and interferones; assay: Lymphokine production in the supernatant of MLR; format: cell-based, mouse; settings: especially y-interferone
Protocol: as §1

[6] = system: Experimental Allergic Encephalomyelytis in SJL/J Mice; assay: Experimental Allergic Encephalomyelitis (EAE) in SJL/J Mice; format: in vivo, mouse
[7] = Solubility (physical and chemical properties); format: physicochemical
DTH to MBSA in BDF1 mice = assay: Delayed Type Hypersensitivity (DTH) Response to methylated bovine serum albumin (MBSA); format: in vivo, mouse
Protocol: Female BDF1 mice were used for this test. The mice were sensitized with a subcutaneous injection of 0.1 ml emulsion consisting of equal volume of MBSA (2 mg/ml) and Freund's incomplete adjuvant(FIA). Seven days later, a 0.05 ml challenge dose of 0.4 mq/ml MIBSA in saline was injected into the plantar region of the right hind foot and 0.05 ml saline into the left hind foot to act as a control. Twenty four hours after challenge, both hind feet were measured with a dial gauge and the mean challenge in footpad thickness was measured. The FR-900506 substance was injected for 8 days orally, starting from the sensitization.

[8] = system: Antibody formation to sheep erythrocytes (SRBC) in BDF1 mice; assay: Antibody Formation in mice (haemagglutination test); format: in vivo, mouse
Protocol: Male BDF1 mice 6 to 8 weeks of age were used for this test. The mice were immunized on day 0 with […] sheep erythrocytes (SRBC) intraperitoneally. Serum aggulutinin titers were determined for each individual animal with sedimentation of erythrocytes by serial two fold dilutions. The titers are expressed as -log2 The FR-900506 substance was administered orally for 5 days from one day before immunization to day 3.

With `C=CCC1/C=C(\C)CC(C)CC(OC)C2OC(O)(C(=O)C(=O)N3CCCCC3C(=O)OC(/C(C)=C/C3CCC(O)C(OC)C3)C(C)C(O)CC1=O)C(C)CC2OC` (stereo not shown) [FR-900506, 17-Allyl-1,14-dihydroxy-12-[2-(4-hydroxy-3-methoxycyclohexyl)-1-methyvinyl]-23-25-dimethoxy-13,19,21,27-tetramethyl-11,28-dioxa-4-azatricyclo[22.3.1.0^4,9]octacos-18-ene-2,3,10,16-tetraone] the “Production of IL-2 from mouse MLR (in words)” value [1] was “inhibited the production of Il-2 from mouse MLR”, the IL-2 ([1]; 0.1 nM) was 25.0 units/ml and the IL-2 ([1]; 0.3 nM) was 0.2 units/ml. The IL-2 ([1]; 1 nM) was 0 units/ml, the IL-2 ([1]; 10 nM) was 0 units/ml and the inhibition at 0.0001 µM ([1]; Mus musculus, CTLL-2, 0.1 nM) was 34.4%. The inhibition at 0.0003 µM ([1]; Mus musculus, CTLL-2, 0.3 nM) was 99.5%, the inhibition at 0.001 µM ([1]; Mus musculus, CTLL-2, 1 nM) was 100% and the inhibition at 0.01 µM ([1]; Mus musculus, CTLL-2, 10 nM) was 100%. The ED50 [2] was 19 mg/kg, the “Effect on skin allograft survival (in words)” value [3] was “clearly prolonged skin allograft survival” and the “Increase of ears at 24 hours after challenge” value ([4]; 32 mg/kg orally for 14 days) was 6.4 ± 1.6 × 10^−3 cm. The “Increase of ears at 24 hours after challenge” value ([4]; 100 mg/kg orally for 14 days) was 2.2 ± 1.5 × 10^−3 cm, the “the dead at dose of 100 mg/kg” value (ddY mice) was “could not be observed” and the “Lymphokine production (in words)” value [5] was “inhibited lymphokine production such as interleukin 3 and interferones”. For the same molecule, the “Number of Animals with Disease at Day 24” value ([6]; 32 mg/kg orally for 19 days starting on day 0) was 0/5, the “Development of clinical signs of EAE (in words)” value ([6]; orally for 19 days starting on day 0) was “clearly prevented the development of clinical signs of EAE” and the Solubility ([7]; hexane (n-hexane), petroleum ether) was “Sparingly Soluble”. For the same molecule, the Solubility ([7]; methanol, ethanol, acetone, ethyl acetate, chloroform, diethyl ether and benzene) was “Soluble”, the Solubility ([7]; water) was “Insoluble” and the “Footpad Swelling” value (DTH to MBSA in BDF1 mice; 10 mg/kg orally for 8 days) was 31.0 ± 4.4 × 10^−3 cm. The “Footpad Swelling” value (DTH to MBSA in BDF1 mice; 32 mg/kg orally for 8 days) was 20.8 ± 4.4 × 10^−3 cm, the “Footpad Swelling” value (DTH to MBSA in BDF1 mice; 100 mg/kg orally for 8 days) was 7.8 ± 1.6 × 10^−3 cm and the ED50 (DTH to MBSA in BDF1 mice; Mus musculus, po, 192 h, orally for 8 days starting from the sensitization) was 18.4 mg/kg. For the same molecule, the “Haemagglutination Mean log2 titer ± SE” value ([8]; 10 mg/kg orally for 5 days) was 7.6 ± 0.4, the “Haemagglutination Mean log2 titer ± SE” value ([8]; 32 mg/kg orally for 5 days) was 6.0 ± 0.45 and the “Haemagglutination Mean log2 titer ± SE” value ([8]; 100 mg/kg orally for 5 days) was 4.4 ± 0.75. For the same molecule, the ED50 ([8]; Erythrocyte, po, orally for 5 days from one day before immunization to day 3) was 16.9 mg/kg.
